Experimental findings from patent US8445676B2, “Pyrrolotriazine kinase inhibitors” (Bristol-Myers Squibb Company, priority 2008, dated 2013) are described below.

This assay concerns the target JAK2 (Homo sapiens, UniProt O60674). The assay can be described thus: JAK2 Tyrosine Kinase Assay. As to conditions: list of named compounds; read-out: IC50 in the JAK2 assay. Format: biochemical. As to the method: JAK2 Tyrosine Kinase Assay
The assays were performed in V-bottom 384-well plates. […] The reaction was initiated by the combination of JAK2 with substrates and test compounds. The reaction was incubated at room temperature for 60 min. and terminated by adding 45 μl of 35 mM EDTA to each sample. The reaction mixture was analyzed on the Caliper LabChip 3000 by electrophoretic separation of the fluorescent substrate and phosphorylated product. […] Compounds were dissolved at 10 mM in dimethylsulfoxide (DMSO) and evaluated at eleven concentrations, each in duplicate. IC50 values were derived by non-linear regression analysis

JAK2, sequence (O60674 whole entry): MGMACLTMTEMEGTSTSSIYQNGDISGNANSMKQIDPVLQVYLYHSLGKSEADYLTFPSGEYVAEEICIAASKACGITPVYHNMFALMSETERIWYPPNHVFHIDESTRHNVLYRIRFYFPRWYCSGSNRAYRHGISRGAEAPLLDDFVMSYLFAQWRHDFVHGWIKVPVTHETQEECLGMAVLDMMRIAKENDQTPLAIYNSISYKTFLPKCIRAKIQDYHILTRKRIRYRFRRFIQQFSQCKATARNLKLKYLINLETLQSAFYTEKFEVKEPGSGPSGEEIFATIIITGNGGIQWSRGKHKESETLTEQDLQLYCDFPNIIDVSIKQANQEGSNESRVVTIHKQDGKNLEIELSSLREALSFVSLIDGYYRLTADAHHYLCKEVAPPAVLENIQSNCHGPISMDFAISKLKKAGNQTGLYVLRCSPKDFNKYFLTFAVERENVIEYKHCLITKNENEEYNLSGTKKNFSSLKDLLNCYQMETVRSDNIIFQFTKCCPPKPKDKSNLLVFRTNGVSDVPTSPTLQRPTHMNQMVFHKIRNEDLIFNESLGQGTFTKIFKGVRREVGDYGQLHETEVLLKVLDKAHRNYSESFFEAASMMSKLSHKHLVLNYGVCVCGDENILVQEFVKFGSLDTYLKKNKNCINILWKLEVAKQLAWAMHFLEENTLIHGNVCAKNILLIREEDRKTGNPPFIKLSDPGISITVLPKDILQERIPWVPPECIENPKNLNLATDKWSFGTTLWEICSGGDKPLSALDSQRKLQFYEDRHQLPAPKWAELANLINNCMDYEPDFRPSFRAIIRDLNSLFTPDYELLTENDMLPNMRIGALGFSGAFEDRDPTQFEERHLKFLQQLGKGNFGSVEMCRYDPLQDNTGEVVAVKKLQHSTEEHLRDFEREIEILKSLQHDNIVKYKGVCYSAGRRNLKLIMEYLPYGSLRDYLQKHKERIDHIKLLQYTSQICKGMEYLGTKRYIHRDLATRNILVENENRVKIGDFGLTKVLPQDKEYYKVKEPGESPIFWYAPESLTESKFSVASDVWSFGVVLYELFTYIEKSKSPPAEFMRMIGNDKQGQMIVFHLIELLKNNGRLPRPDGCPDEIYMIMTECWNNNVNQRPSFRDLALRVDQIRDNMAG

Turning to `Cc1cc(Nc2nc(N3CCN(C(=O)c4ccccc4COc4ccccc4)CC3)nn3cccc23)n[nH]1` [N-(5-methyl-1H-pyrazol-3-yl)-2-(4-(2-(phenoxymethyl)benzoyl)-1-piperazinyl)pyrrolo[2,1-f][1,2,4]triazin-4-amine], the IC50 was ≤ 5 nM.
Next, `Cc1cc(Nc2nc(N3CCN(C(=O)c4ccccc4OC(F)(F)F)CC3)nn3cccc23)n[nH]1` [N-(5-methyl-1H-pyrazol-3-yl)-2-(4-(2-(trifluoromethoxy)benzoyl)-1-piperazinyl)pyrrolo[2,1-f][1,2,4]triazin-4-amine]: ≤ 5 nM.
Regarding `Cc1cc(Nc2nc(N3CCN(C(=O)c4ccccc4C(F)(F)F)CC3)nn3cccc23)n[nH]1` [N-(5-methyl-1H-pyrazol-3-yl)-2-(4-(2-(trifluoromethyl)benzoyl)-1-piperazinyl)pyrrolo[2,1-f][1,2,4]triazin-4-amine], the IC50 is ≤ 5 nM.
As for `Cc1cc(Nc2nc(N3CCN(C(=O)c4ccccc4[N+](=O)[O-])CC3)nn3cccc23)n[nH]1` [N-(5-methyl-1H-pyrazol-3-yl)-2-(4-(2-nitrobenzoyl)-1-piperazinyl)pyrrolo[2,1-f][1,2,4]triazin-4-amine], the IC50 was ≤ 5 nM.
To `Cc1cc(Nc2nc(N3CCN(C(=O)c4ccccc4Oc4ccccc4)CC3)nn3cccc23)n[nH]1` [N-(5-methyl-1H-pyrazol-3-yl)-2-(4-(2-phenoxybenzoyl)-1-piperazinyl)pyrrolo[2,1-f][1,2,4]triazin-4-amine] belongs ≤ 5 nM.
Next, `CCC(C(=O)N1CCN(c2nc(Nc3cc(C)[nH]n3)c3cccn3n2)CC1)c1ccccc1` (centres unmarked) [N-(5-methyl-1H-pyrazol-3-yl)-2-(4-(2-phenylbutanoyl)-1-piperazinyl)pyrrolo[2,1-f][1,2,4]triazin-4-amine]: ≤ 5 nM; `Cc1cc(Nc2nc(N3CCN(C(=O)c4cccc(C(F)(F)F)c4)CC3)nn3cccc23)n[nH]1` [N-(5-methyl-1H-pyrazol-3-yl)-2-(4-(3-(trifluoromethyl)benzoyl)-1-piperazinyl)pyrrolo[2,1-f][1,2,4]triazin-4-amine]: ≤ 5 nM; `Cc1cc(Nc2nc(N3CCN(C(=O)c4ccc(OC(F)(F)F)cc4)CC3)nn3cccc23)n[nH]1` [N-(5-methyl-1H-pyrazol-3-yl)-2-(4-(4-(trifluoromethoxy)benzoyl)-1-piperazinyl)pyrrolo[2,1-f][1,2,4]triazin-4-amine]: ≤ 5 nM.
Next, `Cc1cc(Nc2nc(N3CCN(C(=O)c4ccc(C(F)(F)F)cc4)CC3)nn3cccc23)n[nH]1` [N-(5-methyl-1H-pyrazol-3-yl)-2-(4-(4-(trifluoromethyl)benzoyl)-1-piperazinyl)pyrrolo[2,1-f][1,2,4]triazin-4-amine]: ≤ 5 nM; `Cc1cc(Nc2nc(N3CCN(C(=O)C4(C(F)(F)F)CCC4)CC3)nn3cccc23)n[nH]1` [N-(5-methyl-1H-pyrazol-3-yl)-2-(4-((1-(trifluoromethyl)cyclobutyl)carbonyl)-1-piperazinyl)pyrrolo[2,1-f][1,2,4]triazin-4-amine]: ≤ 5 nM; `Cc1cc(Nc2nc(N3CCN(C(=O)c4cccn4C)CC3)nn3cccc23)n[nH]1` [N-(5-methyl-1H-pyrazol-3-yl)-2-(4-((1-methyl-1H-pyrrol-2-yl)carbonyl)-1-piperazinyl)pyrrolo[2,1-f][1,2,4]triazin-4-amine]: ≤ 5 nM.
Regarding `Cc1cc(Nc2nc(N3CCN(C(=O)C4(c5ccccc5)CCC4)CC3)nn3cccc23)n[nH]1` [N-(5-methyl-1H-pyrazol-3-yl)-2-(4-((1-phenylcyclobutyl)carbonyl)-1-piperazinyl)pyrrolo[2,1-f][1,2,4]triazin-4-amine], the IC50 was ≤ 5 nM.
Next, `Cc1cc(Nc2nc(N3CCN(C(=O)C4(c5ccccc5)CCCC4)CC3)nn3cccc23)n[nH]1` [N-(5-methyl-1H-pyrazol-3-yl)-2-(4-((1-phenylcyclopentyl)carbonyl)-1-piperazinyl)pyrrolo[2,1-f][1,2,4]triazin-4-amine]: ≤ 5 nM; `Cc1cc(Nc2nc(N3CCN(C(=O)C4(c5ccccc5)CC4)CC3)nn3cccc23)n[nH]1` [N-(5-methyl-1H-pyrazol-3-yl)-2-(4-((1-phenylcyclopropyl)carbonyl)-1-piperazinyl)pyrrolo[2,1-f][1,2,4]triazin-4-amine]: ≤ 5 nM.
To `Cc1cc(Nc2nc(N3CCN(C(=O)Cc4ccccc4C(F)(F)F)CC3)nn3cccc23)n[nH]1` [N-(5-methyl-1H-pyrazol-3-yl)-2-(4-((2-(trifluoromethyl)phenyl)acetyl)-1-piperazinyl)pyrrolo[2,1-f][1,2,4]triazin-4-amine] belongs ≤ 5 nM.
Next, `Cc1cc(Nc2nc(N3CCN(C(=O)c4cccnc4C)CC3)nn3cccc23)n[nH]1` [N-(5-methyl-1H-pyrazol-3-yl)-2-(4-((2-methyl-3-pyridinyl)carbonyl)-1-piperazinyl)pyrrolo[2,1-f][1,2,4]triazin-4-amine]: ≤ 5 nM; `CC[C@H](C(=O)N1CCN(c2nc(Nc3cc(C)[nH]n3)c3cccn3n2)CC1)c1ccccc1` [N-(5-methyl-1H-pyrazol-3-yl)-2-(4-((2S)-2-phenylbutanoyl)-1-piperazinyl)pyrrolo[2,1-f][1,2,4]triazin-4-amine]: ≤ 5 nM.
As to `CO[C@](C(=O)N1CCN(c2nc(Nc3cc(C)[nH]n3)c3cccn3n2)CC1)(c1ccccc1)C(F)(F)F` [N-(5-methyl-1H-pyrazol-3-yl)-2-(4-((2S)-3,3,3-trifluoro-2-methoxy-2-phenylpropanoyl)-1-piperazinyl)pyrrolo[2,1-f][1,2,4]triazin-4-amine], the IC50 was ≤ 5 nM.
Next, `Cc1cc(Nc2nc(N3CCN(C(=O)Cc4cccc(OC(F)(F)F)c4)CC3)nn3cccc23)n[nH]1` [N-(5-methyl-1H-pyrazol-3-yl)-2-(4-((3-(trifluoromethoxy)phenyl)acetyl)-1-piperazinyl)pyrrolo[2,1-f][1,2,4]triazin-4-amine]: ≤ 5 nM.
Next, `Cc1cc(Nc2nc(N3CCN(C(=O)Cc4cccc(C(F)(F)F)c4)CC3)nn3cccc23)n[nH]1` [N-(5-methyl-1H-pyrazol-3-yl)-2-(4-((3-(trifluoromethyl)phenyl)acetyl)-1-piperazinyl)pyrrolo[2,1-f][1,2,4]triazin-4-amine]: ≤ 5 nM; `Cc1cc(Nc2nc(N3CCN(C(=O)Cc4ccc(OC(F)(F)F)cc4)CC3)nn3cccc23)n[nH]1` [N-(5-methyl-1H-pyrazol-3-yl)-2-(4-((4-(trifluoromethoxy)phenyl)acetyl)-1-piperazinyl)pyrrolo[2,1-f][1,2,4]triazin-4-amine]: ≤ 5 nM; `Cc1csc(C(=O)N2CCN(c3nc(Nc4cc(C)[nH]n4)c4cccn4n3)CC2)c1` [N-(5-methyl-1H-pyrazol-3-yl)-2-(4-((4-methyl-2-thienyl)carbonyl)-1-piperazinyl)pyrrolo[2,1-f][1,2,4]triazin-4-amine]: ≤ 5 nM.
To `Cc1ccc(C(=O)N2CCN(c3nc(Nc4cc(C)[nH]n4)c4cccn4n3)CC2)cn1` [N-(5-methyl-1H-pyrazol-3-yl)-2-(4-((6-methyl-3-pyridinyl)carbonyl)-1-piperazinyl)pyrrolo[2,1-f][1,2,4]triazin-4-amine] belongs ≤ 5 nM; to `Cc1cc(Nc2nc(N3CCN(C(=O)Cc4ccccc4)CC3)nn3cccc23)n[nH]1` [N-(5-methyl-1H-pyrazol-3-yl)-2-(4-(phenylacetyl)-1-piperazinyl)pyrrolo[2,1-f][1,2,4]triazin-4-amine], ≤ 5 nM; to `CCCCC(=O)N1CCN(c2nc(Nc3cc(C)[nH]n3)c3cccn3n2)CC1` [N-(5-methyl-1H-pyrazol-3-yl)-2-(4-pentanoyl-1-piperazinyl)pyrrolo[2,1-f][1,2,4]triazin-4-amine], ≤ 5 nM.
As for `Cc1cc(Nc2nc(N3CCN(C(=O)C(NC(=O)OC(C)(C)C)c4ccc(Cl)cc4)CC3)nn3cccc23)n[nH]1` (centres unmarked) [tert-butyl (1-(4-chlorophenyl)-2-(4-(4-((5-methyl-1H-pyrazol-3-yl)amino)pyrrolo[2,1-f][1,2,4]triazin-2-yl)-1-piperazinyl)-2-oxoethyl)carbamate], the IC50 is ≤ 5 nM.
Next, `Cc1cc(Nc2nc(N3CCN(C(=O)C4(NC(=O)OC(C)(C)C)CCc5ccccc54)CC3)nn3cccc23)n[nH]1` (centres unmarked) [tert-butyl (1-((4-(4-((5-methyl-1H-pyrazol-3-yl)amino)pyrrolo[2,1-f][1,2,4]triazin-2-yl)-1-piperazinyl)carbonyl)-2,3-dihydro-1H-inden-1-yl)carbamate]: ≤ 5 nM; `Cc1cc(Nc2nc(N3CCN(C(=O)c4ccccc4NC(=O)OC(C)(C)C)CC3)nn3cccc23)n[nH]1` [tert-butyl (2-((4-(4-((5-methyl-1H-pyrazol-3-yl)amino)pyrrolo[2,1-f][1,2,4]triazin-2-yl)-1-piperazinyl)carbonyl)phenyl)carbamate]: ≤ 5 nM; `Cc1cc(Nc2nc(N3CCN(C(=O)[C@@H](NC(=O)OC(C)(C)C)c4ccc(F)cc4)CC3)nn3cccc23)n[nH]1` [tert-butyl((1S)-1-(4-fluorophenyl)-2-(4-(4-((5-methyl-1H-pyrazol-3-yl)amino)pyrrolo[2,1-f][1,2,4]triazin-2-yl)-1-piperazinyl)-2-oxoethyl)carbamate]: ≤ 5 nM.

The term IC50 denotes the concentration that gives 50% inhibition.
